Reference: US10370370B2, “Aminobenzisoxazole compounds as agonists of α7-nicotinic acetylcholine receptors” (FORUM PHARMACEUTICALS, INC., priority 2015, dated 2019)
pKi: −log10 of the molar value. Structures can show the parent of a compound that is named as a salt.

Assays:
[1] = target: human α7 nAChRs transiently expressed in Xenopus laevis oocytes (Homo sapiens (Human), UniProt P36544); assay: Oocyte Electrophysiology Screen (two-electrode voltage-clamp, HiQScreen); assay type: cell-based; conditions: test compound at 0.01 mM, response as percentage of that evoked by 0.2 mM ACh; hydrochloride
Experimental: Oocyte Electrophysiology Screen (% ACh @ 10 μM Oocyte)
The Oocyte Electrophysiology Screen studies were performed under contract by HiQScreen Geneva, Switzerland. All experiments were carried out at human α7 nAChRs transiently expressed in Xenopus laevis oocytes using the method of cDNA expression. Currents evoked by acetylcholine or other agonist ligands were recorded using the standard two-electrode voltage-clamp configuration (TEVC). X. laevis oocytes were prepared and injected using standard procedures. Briefly, ovaries were harvested from X. laevis females that were deeply anesthetized and pithed following the animal rights rule from the Geneva canton. A small piece of ovary was isolated for immediate preparation while the remaining part was placed at 4° C. in a sterile Barth solution containing in mM: NaCl 88, KCl 1, NaHCO3 2.4, HEPES 10, MgSO4.7H2O 0.82, Ca(NO3)2.4H2O 0.33, CaCl2.6H2O 0.41, at pH 7.4, and supplemented with 20 μg/mL of kanamycin, 100 unit/mL penicillin and 100 μg/mL streptomycin. On the second day following dissociation, oocytes were injected with 2 ng of cDNA per oocyte containing the gene encoding human α7 nicotinic acetylcholine receptor subunits using an automated injector (Hogg et al., 2008). All recordings were performed at 18° C. and cells were superfused with OR2 medium containing in mM: NaCl 82.5, KCl 2.5, HEPES 5, CaCl2.2H2O 2.5, pH 7.4. Cells were held at −80 mV. Data were filtered at 10 Hz, captured at 100 Hz and analyzed using proprietary data acquisition and analysis software running under Matlab (Mathworks Inc.).
Experimental Protocol and Analysis
After establishing a baseline transmembrane current, acetylcholine (ACh) was applied for 5 seconds at a concentration of 0.2 mM to establish a control ACh-evoked current response. Following a wash period of 90 s in OR2 medium (free of ACh), cells were then exposed for 30 s to the test compound applied at 0.01 mM. The same reference ACh test pulse was immediately given at the end of the compound exposure and again after 90 s of recovery in OR2 Medium (free of ACh or test compound). All data were determined in triplicate. The response evoked by the test compound was expressed as a percentage of that evoked by ACh: Response (% ACh)=100×(Itest/IACh) where Itest is the peak inward current measured during exposure to 0.01 mM of test compound and IACh is the peak inward current measured in the presence of ACh.
Results are provided in Table 2 (reported as % ACh @ 10 μM Oocyte).

human α7 nAChR = human α7 nAChR (Homo sapiens (Human), UniProt P36544); assay type: binding; conditions: above described assay provided by Cerep
[2] = target: recombinantly expressed human α7-nAChR (Homo sapiens (Human), UniProt P36544); conditions: [125I] α-BTX radioligand, read-out: Ki (lit); cited from earlier work
[3] = target: human 5-HT3 serotonin receptors (Homo sapiens (Human), UniProt P46098); assay: [3H]BRL 43694 competition binding (Cerep); conditions: CHO cell membranes expressing human 5-HT3 receptors
Chain of human 5-HT3 serotonin receptors (P46098 24-478): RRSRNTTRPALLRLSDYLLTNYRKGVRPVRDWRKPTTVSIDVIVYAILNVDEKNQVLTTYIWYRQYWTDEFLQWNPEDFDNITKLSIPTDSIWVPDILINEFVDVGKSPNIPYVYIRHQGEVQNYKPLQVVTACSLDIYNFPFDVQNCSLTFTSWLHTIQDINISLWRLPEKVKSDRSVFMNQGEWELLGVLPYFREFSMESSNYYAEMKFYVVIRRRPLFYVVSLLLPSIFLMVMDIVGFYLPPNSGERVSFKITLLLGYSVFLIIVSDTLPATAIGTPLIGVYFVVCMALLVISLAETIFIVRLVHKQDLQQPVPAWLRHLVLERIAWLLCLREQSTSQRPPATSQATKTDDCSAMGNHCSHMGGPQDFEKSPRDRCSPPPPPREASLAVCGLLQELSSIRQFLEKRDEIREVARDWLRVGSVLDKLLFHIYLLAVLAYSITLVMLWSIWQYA

Chain of human α7 nAChRs transiently expressed in Xenopus laevis oocytes (P36544 23-502 limits assumed): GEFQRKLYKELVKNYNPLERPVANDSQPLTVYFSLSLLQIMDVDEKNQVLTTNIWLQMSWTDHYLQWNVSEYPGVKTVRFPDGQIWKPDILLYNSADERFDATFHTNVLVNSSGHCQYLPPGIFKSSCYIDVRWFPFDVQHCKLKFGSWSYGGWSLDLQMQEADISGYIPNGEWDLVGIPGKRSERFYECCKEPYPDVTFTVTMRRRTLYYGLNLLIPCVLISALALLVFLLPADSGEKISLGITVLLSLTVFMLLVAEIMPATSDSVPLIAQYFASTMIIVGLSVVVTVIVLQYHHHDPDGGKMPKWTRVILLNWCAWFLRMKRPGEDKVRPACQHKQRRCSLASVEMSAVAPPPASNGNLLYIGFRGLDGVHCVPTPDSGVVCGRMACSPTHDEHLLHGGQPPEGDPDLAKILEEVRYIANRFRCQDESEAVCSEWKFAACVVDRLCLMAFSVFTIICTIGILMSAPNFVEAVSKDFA
Chain of recombinantly expressed human α7-nAChR (P36544 23-502 limits assumed): as above
Chain of human α7 nAChR (P36544 23-502 limits assumed): as above

Row | SMILES | % ACh @ 10 μM Oocyte [1] [% ACh] | also measured
1 | c1ccc2c(NC3CN4CCC3CC4)noc2c1 (single isomer, unassigned; enantiomer1) [Compound 1-P1] | 483 | 
2 | Clc1cccc2c(NC3CN4CCC3CC4)noc12 (single isomer, unassigned; enantiomer1) [Compound 2-P1, 7-chloro-N-(quinuclidin-3-yl)benzo[d]isoxazol-3-amine-enantiomer1 hydrochloride] | 418 | 
3 | Clc1ccc2c(NC3CN4CCC3CC4)noc2c1 (single isomer, unassigned; enantiomer1) [Compound 3-P1, 6-chloro-N-(quinuclidin-3-yl)benzo[d]isoxazol-3-amine-enantiomer1 hydrochloride] | 465 | 
4 | Clc1ccc2onc(NC3CN4CCC3CC4)c2c1 (single isomer, unassigned; enantiomer1) [Compound 4-P1, 5-chloro-N-(quinuclidin-3-yl)benzo[d]isoxazol-3-amine-enantiomer1 hydrochloride] | 326 | 
5 | Cc1ccc2c(NC3CN4CCC3CC4)noc2c1 (single isomer, unassigned; enantiomer1) [Compound 5-P1, 6-methyl-N-(quinuclidin-3-yl)benzo[d]isoxazol-3-amine-enantiomer1 hydrochloride] | 548 | 
6 | c1cc2c(NC3CN4CCC3CC4)noc2cc1C1CC1 (single isomer, unassigned; enantiomer1) [Compound 6-P1, 6-cyclopropyl-N-(quinuclidin-3-yl)benzo[d]isoxazol-3-amine-enantiomer1 hydrochloride] | 157 | 
7 | COc1ccc2c(NC3CN4CCC3CC4)noc2c1 (single isomer, unassigned; enantiomer1) [Compound 7-P1, 6-methoxy-N-(quinuclidin-3-yl)benzo[d]isoxazol-3-amine-enantiomer1 hydrochloride] | 326 | 
8 | FC(F)(F)c1ccc2c(NC3CN4CCC3CC4)noc2c1 (single isomer, unassigned; enantiomer1) [Compound 8-P1, N-(quinuclidin-3-yl)-6-(trifluoromethyl)benzo[d]isoxazol-3-amine-enantiomer1 hydrochloride] | 26 | 
9 | c1ccc2c(NC3CN4CCC3CC4)noc2c1 (single isomer, unassigned; enantiomer2) [Compound 1-P2, N-(quinuclidin-3-yl)benzo[d]isoxazol-3-amine-enantiomer2 hydrochloride] | 206 | 
10 | Clc1cccc2c(NC3CN4CCC3CC4)noc12 (single isomer, unassigned; enantiomer2) [Compound 2-P2, 7-chloro-N-(quinuclidin-3-yl)benzo[d]isoxazol-3-amine-enantiomer2 hydrochloride] | 363 | 
11 | Clc1ccc2c(NC3CN4CCC3CC4)noc2c1 (single isomer, unassigned; enantiomer2) [Compound 3-P2, 6-chloro-N-(quinuclidin-3-yl)benzo[d]isoxazol-3-amine-enantiomer2 hydrochloride] | 379 | 
12 | Clc1ccc2onc(NC3CN4CCC3CC4)c2c1 (single isomer, unassigned; enantiomer2) [Compound 4-P2, 5-chloro-N-(quinuclidin-3-yl)benzo[d]isoxazol-3-amine-enantiomer2 hydrochloride] | 17 | 
13 | Cc1ccc2c(NC3CN4CCC3CC4)noc2c1 (single isomer, unassigned; enantiomer2) [Compound 5-P2, 6-methyl-N-(quinuclidin-3-yl)benzo[d]isoxazol-3-amine-enantiomer2 hydrochloride] | 645 | 
14 | c1cc2c(NC3CN4CCC3CC4)noc2cc1C1CC1 (single isomer, unassigned; enantiomer2) [Compound 6-P2, 6-cyclopropyl-N-(quinuclidin-3-yl)benzo[d]isoxazol-3-amine-enantiomer2 hydrochloride] | 355 | 
15 | COc1ccc2c(NC3CN4CCC3CC4)noc2c1 (single isomer, unassigned; enantiomer2) [Compound 7-P2, 6-methoxy-N-(quinuclidin-3-yl)benzo[d]isoxazol-3-amine-enantiomer2 hydrochloride] | 427 | 
16 | FC(F)(F)c1ccc2c(NC3CN4CCC3CC4)noc2c1 (single isomer, unassigned; enantiomer2) [Compound 8-P2, N-(quinuclidin-3-yl)-6-(trifluoromethyl)benzo[d]isoxazol-3-amine-enantiomer2 hydrochloride] | 221 | 
17 | Cc1ccc(-c2ccc(OC3CN4CCC3CC4)cn2)cc1 (stereo not shown) [AQW051] |  | pKi (human α7 nAChR): 6.59; pKi [2]: 7.55
18 | Cc1c(Cl)ccc2c(N[C@H]3CN4CCC3CC4)noc12 [Compound (R)-23, (R)-6-chloro-7-methyl-N-(quinuclidin-3-yl)benzo[d]isoxazol-3-amine hydrochloride] |  | pKi [3]: 6.72
